The record followed here is patent US20070050862A1, “Promoter and methods of use in plants” (priority 2005, published 2007).

Common to all, as to type: in vivo, Arabidopsis thaliana
For one test, the system named is AtCel5-GUS expression. Briefly: GUS activity in roots of transgenic AtCel5-GUS seedlings (fluorometric MUG assay). The settings on record: for Relative activity (GUS activity relative to controls): overlaid 24 hours with 10 ml of 100 μM ABA, fitted slope ± standard error. As for the experimental part:
To investigate the influence of indole-3-acetic acid (IAA; Sigma) plants were grown under liquid conditions as well as vertical plates. In all experiments the roots were separated from the shoots, frozen in liquid Nitrogen, and stored at −80° C. prior to analysis. […] Seeds were cold treated for 4 days at 4° C. to promote even germination. Liquid cultures were placed on a rotary shaker at 120 rpm and grown under 24 hours of fluorescent light at room temperature. […] Plates were transferred to the light incubator for 10 days and set in a vertical position. The inhibitory effect of NPA on root gravity perception was examined by observing the direction of root growth in plates set in a horizontal position.
For analysis of the effects of ABA, a 100 mM ABA stock solution was prepared in 100% ethanol (13.22 mg ABA/0.5 ml) and then diluted 1000× in water. Seeds expressing AtCel5-GUS were plated on agar basal medium and grown for 7 and 10 days. Under sterile conditions, plates with seedlings were opened and 10 ml of 100 μM ABA was added to bathe the seedlings. Plates were then set horizontally in the light incubator for 24 hours.
Quantification of GUS activity was performed according to the method of Jefferson et al. (1987) using the fluorogenic substrate MUG (4-methyl-umbelliferyl-β-D-glucuronide). Only root tissue was used to analyze GUS activity. Tissues were ground in MUG extraction buffer and centrifuged for 5 minutes, at maximal speed in a microfuge, to clear the supernatant. An aliquot of crude extract containing the same number of root tips per treatment was mixed with the MUG reaction buffer containing 2 mM MUG and incubated at 37° C. Five or six aliquots were taken from the enzyme reaction at 60 minute intervals. At each time point, the reaction was stopped with 0.2 M Na2CO3. Fluorescence was determined using a one-channel fluorometer (Turner Designs Picofluor) with an excitation range of 365-395 nm and emission wavelengths of greater than 430 nm. The fitted linear slope (±standard error) of fluorescence vs. incubation time was used as a relative measure of GUS content for comparison of controls and treatments.

For test [1], the system named is AtCel5-GUS expression in the root cap. In words: Histochemical GUS staining of AtCel5-GUS seedlings. As for the experimental part: For analysis of ethylene regulation, seeds expressing AtCel5-GUS were plated on agar containing half-strength MS medium supplemented with 10 μM of 1 aminocyclo-propane-1 carboxylic acid (ACC; Sigma), made from a stock (1000×) prepared in water. […]
Plant tissues were collected in 90% acetone and incubated on ice for at least 10 min. Tissues were rinsed with 50 mM NaPO4 pH 7.2, […] and […] and then placed in staining solution (2 mM 5-bromo-4-chloro-3-indolyl-β-D-[…] [X-Glu; Sigma] in rinse solution), vacuum infiltrated for 10 minutes and finally incubated at 37° C. for 2 hours or overnight. Seedlings were examined using a microscope and photographed with a Digital Nikon 990 Camera.

The next test deals with AtCel5 transcript. Briefly: RT-PCR of AtCel5 transcript in roots, normalized to KOR. As to conditions: 10 μM ACC.

Method for AtCel5 transcript: For comparative RT-PCR analysis of roots exposed to various treatments, or the analysis of expression of the AtCel5 duplicon, a two-step RT-PCR was performed using the Retroscript kit (Ambion, Austin, Tex.). Total root RNA was pretreated with DNAse prior to reverse transcription (Ambion DNA-free kit). The first strand cDNA was prepared with oligo dT primers and used as template for PCR reactions. RT-PCR was normalized using Actin-11 or KOR as internal standards. […] Each cycle included a denaturation and an extension step at 94° C. for 45 seconds, and at 72° C. for 70 seconds, respectively. The annealing step was carried out for 30 seconds at the temperature optimal for each primer pair: • AtCel5 (set II), 58° C.; KOR, 62° C.; Actin-11, 60° C.; AtCel3, 65° C.

For the compound `O=C(O)c1ccccc1C(=O)Nc1cccc2ccccc12` [NPA, N-1-naphthylphthalamic acid], the “Quantitative GUS activity in roots compared to controls” value in the test on AtCel5-GUS expression (agar plates supplemented with 1 μM NPA) is “large decrease”.
On to `NC1(C(=O)O)CC1` [ACC, 1 aminocyclo-propane-1 carboxylic acid], for which the “AtCel5-GUS expression once growth stalled” value in test [1] (after 10 days on ACC plates, staining reappeared on fresh media without ACC) is “disappeared”. Moreover, the “GUS staining in the root cap” value in test [1] (seedlings grown for 10 days on MS plates containing 10 μM ACC) is reported as “still observed”. Also, the “AtCel5 transcript, control vs treated roots” value in the test on AtCel5 transcript is recorded as “no significant changes”.
Take `CC1=CC(=O)CC(C)(C)C1(O)/C=C/C(C)=C\C(=O)O` (stereo not drawn) [ABA, abscissic acid]: the “AtCel5 expression after ABA treatment” value in the test with AtCel5-GUS expression (24 hour ABA treatment, both experiments, vs control) is on record as “reduced by almost half”. Also, the “Relative activity (GUS activity relative to controls)” value came out at 0.53 ± 0.04 in the test with AtCel5-GUS expression (Experiment number 1: seedlings 7 days post-germination) and 0.42 ± 0.06 in the test with AtCel5-GUS expression (Experiment number 2: seedlings 10 days post germination).
Turning to `O=C(O)Cc1c[nH]c2ccccc12` [IAA, indole-3-acetic acid], in the test with AtCel5-GUS expression (agar plates supplemented with 10 μM IAA), the “Quantitative GUS activity in roots compared to controls” value was “large decrease”. Moreover, the “GUS activity compared to controls” value in the test with AtCel5-GUS expression (seedlings grown on liquid MS containing IAA (50 μM)) is reported as “greatly reduced”.
